Data set [1] relates to HCC70 cells. Description: Inhibition of cell proliferation, CellTiter-Glo, HCC70. The format is cell-based. To be noted: Homo sapiens, HCC70, 72 h. The method, then:
(§1) The compounds were each prepared with 100% DMSO into 10 mM mother liquor.
(§2) HCC70 cells and OVCAR3 cells were digested and counted. Cells were diluted to an appropriate concentration according to cell density. 100 μL of cells were added to each well of a 96-well plate. Medium wells served as blank control (Min). The cells were incubated overnight in an incubator at 37° C./5% CO2.
(§3) A 200-fold stock solution of a compound was prepared with DMSO, and the compound was diluted with growth medium to a 3-fold stock solution, i.e., […] of each of 200-fold stock solutions of compound at different concentrations was added to 197 μL of medium. 50 μL of diluted compound was added to each well and the mixture was incubated at 37° C./5% CO2 for 72 h.
(§4) The 96-well plate was equilibrated to room temperature before detection. 40 μL of CellTiter-Glo solution was added to each well. The mixture was mixed for 2 min using a horizontal shaker to induce cell lysis. The mixture was incubated at room temperature for 60 min to stabilize […] signals. Fluorescence values were read on ENVISION.
(§5) (1) Data was analyzed by GraphPad Prism 5
(§6) (2) % inhibition rate=(maximum signal−compound signal)/(maximum signal−minimum signal)×100
(§7) (3) Maximum signal: signal of DMSO well
(§8) (4) Minimum signal: signal of medium well
(§9) The effect of SZ-015200, SZ-015256 and SZ-015268 on cell proliferation after incubation with HCC70, OVCAR-3, HCT116 and HCC1806 cells for 3 days was detected according to the method described in Efficacy Example 2, and the results are shown in Table 3.
For orientation: In ATP-based viability assays light output follows the ATP content of the culture.

Data set [2] concerns the target CDK7/Cyclin H/MAT1 (Homo sapiens, UniProt P50613). As to the kind of experiment: CDK7 inhibition, mobility shift assay.
Experimental: The initial concentration of compound was 10 μM, and the compound was 3-fold diluted to obtain 10 concentrations. Duplicate wells were set for the assay, and the pre-incubation time of compound and enzyme was 60 min.
Compound powders were dissolved in 100% DMSO to prepare 10 mM stock solution, which was 3-fold diluted with DMSO, with 0.5 mM as the initial concentration, to obtain 10 concentration gradients of compound solutions.
(1) Compound at each concentration was 8.3-fold diluted with ddH2O, and then 2 μL of each compound solution and positive control were added to a 384-well plate.
(2) 5 μL of a kinase working solution (CDK7/Cyclin H/MAT1) was added to the compound wells and positive control wells to make the final concentration of CDK7 be 3 nM.
(3) The plate was pre-incubated at room temperature for 60 min.
(5) The 384-well plate was incubated at 27° C. for 36 min.
(6) 4 μL of 80 mM EDTA was added to terminate the reaction.
(7) The conversion rates were read using a Caliper EZ Reader II.
For data set [3], the system named is OVCAR3 cells. As to the kind of experiment: Inhibition of cell proliferation, CellTiter-Glo, OVCAR3. The class given is cell-based. To be noted: Homo sapiens, OVCAR-3, 72 h. The method, then: as §1, §2, §3, §4, §5, §6, §7, §8, §9
The nature of data set [4]: In vivo pharmacokinetics after intragastric administration in rats. Further details: species or system SD rats. The conditions noted are these: single intragastric administration, 40 mg/kg; for AUC(0-inf) / AUC(0-t) / Cmax / Tmax / half-life: male, SD, rat, po, plasma; for Cmax and AUC compared with the control compound SZ-015200: in words. The method, then: Male SD rats were divided into different groups with 3 rats in each group, and single intragastric administration was conducted for each group. The compounds were each formulated with 10% DMSO/10% Solutol/80% (20% Captisol) to reach an appropriate concentration and then administered intragastrically at 40 mg/kg. Blood was taken 5 min, 15 min, 30 min, 1 h, 2 h, 4 h, 6 h, 8 h and 24 h after administration, and then subjected to EDTA-K2 anticoagulation. The concentration of the compound in the plasma was quantitatively detected by an LC-MS/MS method.

In data set [5] the test system is HCT116 cells. As to the kind of experiment: Inhibition of cell proliferation, CellTiter-Glo, HCT116. To be noted: Homo sapiens, HCT-116, 72 h; Efficacy Example 3 (Table 3), incubation for 3 days. The format is cell-based. On the procedure: as §2, §3, §4, §6, §9
The subject of data set [6] is human colon cancer cells HCT116 xenograft tumor. As to the kind of experiment: In vivo efficacy in subcutaneous xenograft tumor model of human colon cancer cells HCT116. Further details: species or system BALB/c nude mice. The conditions noted are these: for Tumor inhibition rate (TGI): day 21; for % proliferation percentage of tumor volume (Day 21 after grouping) / Tumor volume (day 21 after grouping): mean value ± standard error; for Effect on inhibiting tumor proliferation compared with the control compound SZ-015200 (in words): HCT116 xenograft, p.o. QD × 21 days; for Anti-tumor effect (in words): SZ-015256: 25 mg/kg and 15 mg/kg treatment groups, SZ-015268 and SZ-015200: 25 mg/kg treatment group. On the procedure:
HCT116 tumor cells used in this test were purchased from ATCC. HCT116 tumor cells were cultured in McCoy's 5a medium containing inactivated 10% fetal bovine serum, 100 U/mL penicillin, 100 μg/mL streptomycin and 2 mM glutamine in an incubator at 37° C./5% CO2. The cells were divided and transferred to other bottles every 3 to 4 days for passaging when the culture bottle was full of cells. The tumor cells in the logarithmic growth phase were used for tumor seeding in vivo.
HCT116 tumor cells resuspended in serum-free McCoy's 5a culture solution were seeded subcutaneously into the right costal part of male BALB/c nude mice at 5×10^6/0.1 mL. When the tumor grew to 101 mm^3, animals with uniform tumor volume were selected and divided into groups with 8 animals in each group for administration, and the specific administration regimens are shown in Table 6 below.
Tumor volume: the long and short diameters of the tumor were measured twice every week using a vernier caliper for calculating the tumor volume, and the calculation formula was:
volume=0.5×long diameter×short diameter^2.
[…]=mean value of relative tumor volume of treatment group/mean value of relative tumor volume of control group×100
Tumor growth inhibition rate(TGI,%)=(1−T/C)×100
Statistical analysis between groups was performed for tumor volume using One-Way ANOVA test, and a significant difference was considered to be present when p<0.05.
A general note: A xenograft is tissue or cells of one species grown in another, often human tumour cells in immunodeficient mice.

The nature of data set [7]: In vivo pharmacokinetics after intragastric administration in mice. To be noted: single intragastric administration, 20 mg/kg; for AUC(0-inf) / AUC(0-t) / Cmax / Tmax / half-life: male, ICR, mouse, po, plasma; for Cmax and AUC compared with the control compound SZ-015200: in words. On the procedure: Male 1CR mice were divided into different groups with 3 mice in each group, and single intragastric administration was conducted for each group. The compounds were each formulated with 10% DMSO/10% Solutol/80% ([…]) to reach an appropriate concentration and then administered intragastrically at 20 mg/kg. Blood was taken 5 min, 15 min, 30 min, 1 h, 2 h, 4 h, 6 h, 8 h and 24 h after administration, and then subjected to EDTA-K2 anticoagulation. The concentration of the compound in the plasma was quantitatively detected by an LC-MS/MS method.

Data set [8] relates to HCC1806 cells. As to the kind of experiment: Inhibition of cell proliferation, CellTiter-Glo, HCC1806. The format is cell-based. The conditions noted are these: Homo sapiens, HCC1806, 72 h; Efficacy Example 3 (Table 3), incubation for 3 days. On the procedure:
as §2, §3, §4, §6, §9

Setting [9] is: Efficacy Example 2 (Table 2), 72 h incubation.
Where [10] appears, read: Efficacy Example 3 (Table 3), incubation for 3 days.

Sequence of CDK7/Cyclin H/MAT1 (P50613 whole entry): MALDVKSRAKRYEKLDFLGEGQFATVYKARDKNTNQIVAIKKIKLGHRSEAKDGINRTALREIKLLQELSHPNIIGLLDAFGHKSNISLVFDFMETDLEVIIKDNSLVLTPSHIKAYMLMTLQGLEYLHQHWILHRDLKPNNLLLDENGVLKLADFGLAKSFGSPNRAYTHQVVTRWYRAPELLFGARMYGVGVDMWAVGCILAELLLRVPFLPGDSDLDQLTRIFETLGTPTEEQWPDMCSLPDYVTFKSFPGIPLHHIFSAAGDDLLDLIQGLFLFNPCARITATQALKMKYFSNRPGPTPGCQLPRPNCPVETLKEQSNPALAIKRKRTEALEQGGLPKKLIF
Sequence of CDK7/Cyclin H/MAT1 (P51946 whole entry partner): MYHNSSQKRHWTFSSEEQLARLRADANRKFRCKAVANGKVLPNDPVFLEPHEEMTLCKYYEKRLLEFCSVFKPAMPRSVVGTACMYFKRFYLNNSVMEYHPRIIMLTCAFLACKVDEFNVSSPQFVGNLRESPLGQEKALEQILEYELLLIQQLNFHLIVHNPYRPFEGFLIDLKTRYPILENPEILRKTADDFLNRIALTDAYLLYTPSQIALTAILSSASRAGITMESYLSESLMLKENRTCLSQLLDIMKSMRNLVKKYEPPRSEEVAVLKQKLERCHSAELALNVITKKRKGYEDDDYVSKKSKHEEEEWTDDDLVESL
Sequence of CDK7/Cyclin H/MAT1 (P51948 whole entry partner): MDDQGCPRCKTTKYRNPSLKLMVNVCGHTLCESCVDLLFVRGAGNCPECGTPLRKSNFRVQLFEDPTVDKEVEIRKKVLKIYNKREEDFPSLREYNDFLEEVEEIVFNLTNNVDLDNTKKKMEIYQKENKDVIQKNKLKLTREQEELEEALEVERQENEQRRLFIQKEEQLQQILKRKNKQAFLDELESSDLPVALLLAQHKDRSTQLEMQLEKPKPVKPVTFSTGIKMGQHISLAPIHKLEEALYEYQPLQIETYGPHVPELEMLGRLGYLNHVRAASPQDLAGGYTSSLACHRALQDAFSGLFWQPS

Consider `Cc1cc(NC2CCN(C(=O)O[C@H]3CCN(C(=O)/C=C/CN(C)C)C3)CC2)c2ncn(C(C)C)c2n1` [SZ-015095, (S,E)-1-(4-(dimethylamino)but-2-enoyl)pyrrolidin-3-yl 4-((3-isopropyl-5-methyl-3H-imidazo[4,5-b]pyridin-7-yl)amino)piperidine-1-carboxylate], for which the half-maximal inhibitory concentration (IC50) (usually the midpoint of a concentration-inhibition curve) in data set [1] (setting [9]) is 479 nM; in data set [2], 128 nM; in data set [3] (setting [9]), 138 nM.

In the case of `Cc1nc(NC2CCN(C(=O)O[C@H]3CCN(C(=O)/C=C/CN(C)C)C3)CC2)n2ncc(C(C)C)c2n1` [SZ-015256, (S,E)-1-(4-(dimethylamino)but-2-enoyl)pyrrolidin-3-yl 4-((8-isopropyl-2-methylpyrazolo[1,5-a][1,3,5]triazin-4-yl)amino)piperidine-1-carboxylate], in data set [4], the area under the curve AUC(0-inf) (in general, total exposure, with the tail of the curve extrapolated) was 7880 ng·h/mL; the AUC(0-t) – broadly, exposure summed from dosing to a finite time, without extrapolation to infinity – came out at 7830 ng·h/mL; the peak level (Cmax) was 783 ng/mL; the time to peak (Tmax) (in general, the time at which the peak concentration occurs) worked out at 4.67 h. Further, in data set [4], the half-life (in general, the time in which the quantity being followed falls by half) was 2.99 h; the “Cmax and AUC compared with the control compound SZ-015200” value is “The results show that compared with the control compound SZ-015200, the Cmax and the AUC of SZ-015256 and SZ-015268 in rats after single intragastric administration were significantly higher, which indicates that SZ-015256 and SZ-015268 have better pharmacokinetic properties”. Further, the midpoint of inhibition in data set [5], the IC50, lay at 25.3 nM. For the same compound, it took 175 nM to reach half-maximal inhibition in data set [1] (setting [9]) (IC50). Further, in data set [1] (setting [10]), 50.9 nM corresponded to half-maximal inhibition (IC50). Besides, the IC50 in data set [2] came out at 54.3 nM. Also, in data set [6] (15 mg/kg p.o. QD × 21 days), the “Tumor inhibition rate (TGI)” value is on record as 61.6%, the “% proliferation percentage of tumor volume (Day 21 after grouping)” value (from here on “% proliferation percentage”) was determined as 407 ± 40% and the “Tumor volume (day 21 after grouping)” value is recorded as 402 ± 42 mm^3. In addition, in data set [6] (25 mg/kg p.o. QD × 21 days), the “Tumor inhibition rate (TGI)” value is given as 81.9%, the “% proliferation percentage” value came to 192 ± 38% and the “Tumor volume (day 21 after grouping)” value is 201 ± 43 mm^3. In data set [6], the “Effect on inhibiting tumor proliferation compared with the control compound SZ-015200 (in words)” value was “stronger effect on inhibiting tumor proliferation” and the “Anti-tumor effect (in words)” value is “significant anti-tumor effect”. In addition, in data set [7], the area under the curve AUC(0-inf) was 6380 ng·h/mL; the AUC(0-t) is 6260 ng·h/mL; the Cmax (as a rule, the maximum level reached in the sampled fluid or tissue) is 3380 ng/mL; the Tmax came to 0.5 h. For the same compound, in data set [7], the half-life is 1.48 h; the “Cmax and AUC compared with the control compound SZ-015200” value is “significantly higher”. Moreover, in data set [3] (setting [9]), 75.1 nM corresponded to half-maximal inhibition (IC50). Moreover, in data set [3] (setting [10]), the IC50 was determined as 45.3 nM. Moreover, the IC50 in data set [8] amounted to 44.5 nM.

For `Cc1nc(NC2CCN(C(=O)O[C@H]3CCN(C(=O)/C=C/CN(C)C)C3)CC2)c2ncc(C(C)C)n2n1` [SZ-015268, (S,E)-1-(4-(dimethylamino)but-2-enoyl)pyrrolidin-3-yl 4-((7-isopropyl-2-methylimidazo[2,1-f][1,2,4]triazin-4-yl)amino)piperidin-1-carboxylate], in data set [4], the total exposure AUC(0-inf) is 4510 ng·h/mL, the AUC(0-t) came to 4450 ng·h/mL, the highest level (Cmax) was 543 ng/mL and the Tmax was 4 h. Further, in data set [4], the half-life is 3.92 h; the “Cmax and AUC compared with the control compound SZ-015200” value is “The results show that compared with the control compound SZ-015200, the Cmax and the AUC of SZ-015256 and SZ-015268 in rats after single intragastric administration were significantly higher, which indicates that SZ-015256 and SZ-015268 have better pharmacokinetic properties”. The half-maximal inhibitory concentration (IC50) in data set [5] amounted to 12.5 nM. Further, in data set [1] (setting [9]), the IC50 is 57.5 nM. In data set [1] (setting [10]), this compound gave a half-inhibitory concentration (IC50) of 33 nM. Besides, in data set [6] (25 mg/kg p.o. QD × 21 days), the “Tumor inhibition rate (TGI)” value was 84.3%, the “% proliferation percentage” value is 167 ± 39% and the “Tumor volume (day 21 after grouping)” value is listed as 172 ± 41 mm^3. In data set [6], the “Effect on inhibiting tumor proliferation compared with the control compound SZ-015200 (in words)” value is “stronger effect on inhibiting tumor proliferation” and the “Anti-tumor effect (in words)” value is recorded as “significant anti-tumor effect”. In data set [7], the AUC(0-inf) is 3150 ng·h/mL, the AUC(0-t) was determined as 3100 ng·h/mL, the peak concentration (Cmax) was found to be 1540 ng/mL and the Tmax came out at 0.42 h. In addition, in data set [7], the half-life was 1.39 h; the “Cmax and AUC compared with the control compound SZ-015200” value is recorded as “not lower”. Also, the IC50 in data set [3] (setting [9]) came out at 29.9 nM. For the same compound, in data set [3] (setting [10]), it took 80.6 nM to reach half-maximal inhibition (IC50). The same compound came in with an IC50 in data set [8] of 61.5 nM.

In the case of `Cc1nc(NC2CCN(C(=O)O[C@H]3CCN(C(=O)/C=C/CN(C)C)C3)CC2)c2ncc(C(C)C)n2n1` [SZ-0015268], the half-maximal inhibitory concentration (IC50) in data set [2] was found to be 23.6 nM.

`Cc1cc2c(ncn2C(C)C)c(NC2CCN(C(=O)O[C@H]3CCN(C(=O)/C=C/CN(C)C)C3)CC2)n1` [SZ-015272, (S,E)-1-(4-(dimethylamino)but-2-enoyl)pyrrolidin-3-yl 4-((1-isopropyl-6-methyl-1H-imidazo[4,5-c]pyridin-4-yl)amino)piperidine-1-carboxylate]: the IC50 in data set [1] (setting [9]) came out at 948 nM; in data set [2] it was 278 nM; in data set [3] (setting [9]) it was 460 nM.

Take `Cc1cc(NC2CCN(C(=O)O[C@H]3CCN(C(=O)/C=C/CN(C)C)C3)CC2)c2ncc(C(C)C)n2n1` [SZ-015273, (S,E)-1-(4-(dimethylamino)but-2-enoyl)pyrrolidin-3-yl 4-((3-isopropyl-6-methylimidazo[1,2-b]pyridazin-8-yl)amino)piperidin-1-carboxylate]: the IC50 in data set [1] (setting [9]) amounted to 291 nM; in data set [2] it was 44.5 nM; in data set [3] (setting [9]) it was 31.9 nM.

In the case of `Cc1cn2c(C(C)C)cnc2c(NC2CCN(C(=O)O[C@H]3CCN(C(=O)/C=C/CN(C)C)C3)CC2)n1` [SZ-015274], the figures for the IC50 in data set [1] (setting [9]), in data set [2] and in data set [3] (setting [9]) were 187 nM, 197 nM and 151 nM, respectively.

Source of the values: US20230115907A1, “HETEROCYCLIC COMPOUND AND PHARMACEUTICAL COMPOSITION, PREPARATION METHOD, INTERMEDIATE AND USE THEREOF” (EVOPOINT BIOSCIENCES CO., LTD., priority 2019, published 2023).
